{
  "source": "patent US20090227025A1",
  "about": "“Ex vivo human lung/immune system model using tissue engineering for studying microbial pathogens with lung tropism” (priority 2003, published 2009)",
  "key": {"[1]": {"tested_on": "influenza A virus A/Marton/43 (H1N1)", "format": "cell-based"}, "[2]": {"tested_on": "influenza A virus", "format": "cell-based"}},
  "note": "Values joined by “and” are separate entries in the source; they are usually repeats but may differ in a detail not shown here. Equal values may be shown once.",
  "data": [
    {"smiles": "CC(=O)N[C@H]1[C@H]([C@H](O)[C@H](O)CO)OC(C(=O)O)=C[C@@H]1NC(=N)N", "note": "[Neuraminidase inhibitor, 4-guanidino-2,4-dideoxy-2,3-dehydro-N-acetylneuraminic acid]", "values": [
      {"measurement": "average virus titer", "setting": "[1]", "value": "4.93 × 10^5 and 2.7 × 10^5"},
      {"measurement": "virus localisation in treated TE cultures (staining, FIGS. 12A-F)", "setting": "[2]", "value": "accumulation of clumped virus"}
    ]}
  ]
}
